Test results as given in the supplement of paper PMC4862054.
Several values for one entry are separate records, joined by “and”; a condition that tells them apart may be missing. Equal entries are not always repeated.

What was measured:
Assay in all cases: normalised viability (% of control), CellTiter-Blue; higher = more viable cells (about 100 = DMSO control)
Conditions in all cases: incubation time: 72 h
DU-4475 [1] = tested on: DU-4475
Method: (§1)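 DSRT, CellTiter-Blue viability, 72 h incubation. Signal is normalised to DMSO and benzethonium chloride controls. Value is the normalised response at dose 8.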

CAL-51 [2] = tested on: CAL-51
Method: as §1

MDA-MB-453 [3] = tested on: MDA-MB-453
Method: as §1

HDQ-P1 [4] = tested on: HDQ-P1
Method: as §1

CAL-85-1 [5] = tested on: CAL-85-1
Method: as §1

CAL-148 [6] = tested on: CAL-148
Method: as §1

DU-4475 [7] = tested on: DU-4475; remark: listed apart in the source
Method: (§2)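 DSRT, CellTiter-Blue viability, 72 h incubation. Signal is normalised to DMSO and benzethonium chloride controls. Value is the normalised response at dose 6.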

CAL-51 [8] = tested on: CAL-51; remark: listed apart in the source
Method: as §2

MDA-MB-453 [9] = tested on: MDA-MB-453; remark: listed apart in the source
Method: as §2

HDQ-P1 [10] = tested on: HDQ-P1; remark: listed apart in the source
Method: as §2

CAL-85-1 [11] = tested on: CAL-85-1; remark: listed apart in the source
Method: as §2

CAL-148 [12] = tested on: CAL-148; remark: listed apart in the source
Method: as §2

DU-4475 [13] = tested on: DU-4475; remark: listed apart in the source
Method: (§3)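 DSRT, CellTiter-Blue viability, 72 h incubation. Signal is normalised to DMSO and benzethonium chloride controls. Value is the normalised response at dose 7.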

CAL-51 [14] = tested on: CAL-51; remark: listed apart in the source
Method: as §3

MDA-MB-453 [15] = tested on: MDA-MB-453; remark: listed apart in the source
Method: as §3

HDQ-P1 [16] = tested on: HDQ-P1; remark: listed apart in the source
Method: as §3

CAL-85-1 [17] = tested on: CAL-85-1; remark: listed apart in the source
Method: as §3

CAL-148 [18] = tested on: CAL-148; remark: listed apart in the source
Method: as §3

| Compound | normalised viability (DU-4475 [7]) | normalised viability (CAL-51 [8]) | normalised viability (MDA-MB-453 [9]) | normalised viability (HDQ-P1 [10]) | normalised viability (CAL-85-1 [11]) | normalised viability (CAL-148 [12]) | further results |
| --- | --- | --- | --- | --- | --- | --- | --- |
| Cc1cccc(-c2nn3c(c2-c2ccnc4ccc(C(N)=O)cc24)CCC3)n1 (300 nM) | – | – | – | – | – | – | normalised viability (DU-4475 [1]): 102%; normalised viability (CAL-51 [2]): 103%; normalised viability (MDA-MB-453 [3]): 115%; normalised viability (HDQ-P1 [4]): 125%; normalised viability (CAL-85-1 [5]): 108%; normalised viability (CAL-148 [6]): 110% |
| COc1cc(CCc2cc(NC(=O)c3ccc(N4CC(C)NC(C)C4)cc3)n[nH]2)cc(OC)c1 (stereo not given) [AZD4547] (30 nM) | 92.7% | 107% | 109% | 103% | 89.7% | 105% | – |
| CO[C@@H](C(=O)N1Cc2[nH]nc(NC(=O)c3ccc(N4CCN(C)CC4)cc3)c2C1)c1ccccc1 [Danusertib] (300 nM) | 57% | 60.3% | 60.2% | 50.8% | 61.9% | 54.6% | – |
| O=C(Nc1c[nH]nc1-c1nc2ccc(CN3CCOCC3)cc2[nH]1)NC1CC1 [AT9283] (300 nM) | 28.4% | 59.1% | 58.1% | 61.1% | 87.7% | 61.9% | – |
| c1cc(CN2CCCNCCNCCCNCC2)ccc1CN1CCCNCCNCCCNCC1 [Plerixafor] (75 nM) | 101% | 103% | 93.3% | 84% | 95% | 85.9% | – |
| Nc1ccccc1NC(=O)c1ccc(CNc2nccc(-c3cccnc3)n2)cc1 [Mocetinostat] (300 nM) | 81.9% | 92.9% | 69% | 57.8% | 85.8% | 87.5% | – |
| C[C@]12C=CC(=O)C=C1CC[C@@H]1[C@@H]2[C@@H](O)C[C@@]2(C)[C@H]1CC[C@]2(O)C(=O)CO [Prednisolone] (300 nM) | 113% | 104% | 79.4% | 64.2% | 110% | 105% | – |
| Nc1cccc2c1CN(C1CCC(=O)NC1=O)C2=O (stereo not given) [Lenalidomide] (300 nM) | 103% and 86.6% | 107% and 103% | 97.7% and 101% | 66.2% and 69.3% | 87.3% and 90.2% | 92% and 96.1% | – |
| O=S(=O)(c1cccc2cnccc12)N1CCCNCC1 [Fasudil] (1000 nM) | – | – | – | – | – | – | normalised viability (DU-4475 [13]): 120%; normalised viability (CAL-51 [14]): 115%; normalised viability (MDA-MB-453 [15]): 101%; normalised viability (HDQ-P1 [16]): 111%; normalised viability (CAL-85-1 [17]): 101%; normalised viability (CAL-148 [18]): 90.7% |
| COc1ccc(-c2cc3c(C)nc(N)nc3n([C@H]3CC[C@H](OCCO)CC3)c2=O)cn1 (300 nM) | 65.8% | 30.1% | 16.9% | 18% | 49.9% | 42.2% | – |
| Nc1nc(=O)c2c([nH]1)NCC(CNc1ccc(C(=O)N[C@@H](CCC(=O)O)C(=O)O)cc1)N2C=O (mixture of isomers) [Folinic acid] (29.7 nM) | 115% | 97.8% | 99.8% | 140% | 100% | 86.6% | – |
| Cc1c(CN2CCN(C(=O)[C@H](C)O)CC2)sc2c(N3CCOCC3)nc(-c3cnc(N)nc3)nc12 [GDC-0980] (300 nM) | 68.3% | 38.7% | 18.3% | 29.7% | 62% | 52.1% | – |
| c1cc(CN2CCCNCCNCCCNCC2)ccc1CN1CCCNCCNCCCNCC1 [Plerixafor] (250 nM) | – | – | – | – | – | – | normalised viability (DU-4475 [13]): 97.2%; normalised viability (CAL-51 [14]): 105%; normalised viability (MDA-MB-453 [15]): 104%; normalised viability (HDQ-P1 [16]): 121%; normalised viability (CAL-85-1 [17]): 94.3%; normalised viability (CAL-148 [18]): 84.4% |
| CS(=O)(=O)N1CCN(Cc2cc3nc(-c4cccc5[nH]ncc45)nc(N4CCOCC4)c3s2)CC1 [GDC-0941] (1000 nM) | – | – | – | – | – | – | normalised viability (DU-4475 [13]): 105%; normalised viability (CAL-51 [14]): 39.5%; normalised viability (MDA-MB-453 [15]): 12%; normalised viability (HDQ-P1 [16]): 25%; normalised viability (CAL-85-1 [17]): 58.4%; normalised viability (CAL-148 [18]): 54% |
| CNC(=O)c1cc(Oc2ccc(NC(=O)Nc3ccc(Cl)c(C(F)(F)F)c3)cc2)ccn1 [Sorafenib] (300 nM) | – | – | – | – | – | – | normalised viability (DU-4475 [1]): 104% and 99.8%; normalised viability (CAL-51 [2]): 109% and 102%; normalised viability (MDA-MB-453 [3]): 96.8% and 108%; normalised viability (CAL-85-1 [5]): 83.4% and 99.7%; normalised viability (CAL-148 [6]): 93.4% and 99% |
| O=C(NC[C@H](O)CO)c1ccncc1Nc1ccc(I)cc1F (300 nM) | 0.69% | 85.9% | 98% | 57.6% | 77.3% | 82.7% | – |
| CC[C@@]1(O)C(=O)OCc2c1cc1n(c2=O)Cc2cc3c(CN(C)C)c(O)ccc3nc2-1 [Topotecan] (30 nM) | 56.8% | 94.8% | 90.6% | 82.3% | 95.9% | 71.3% | – |
| Cc1nc(Nc2ncc(C(=O)Nc3c(C)cccc3Cl)s2)cc(N2CCN(CCO)CC2)n1 [Dasatinib] (30 nM) | 105% and 87.6% | 59.8% and 68.3% | 102% and 101% | 24.4% and 18.2% | 83.9% and 86% | 110% and 90.6% | – |
| Cc1cccc(-c2nn3c(c2-c2ccnc4ccc(C(N)=O)cc24)CCC3)n1 (30 nM) | 95.8% | 103% | 93.3% | 100% | 96.7% | 89.8% | – |
| O=C(NC[C@H](O)CO)c1ccncc1Nc1ccc(I)cc1F (1000 nM) | – | – | – | – | – | – | normalised viability (DU-4475 [13]): 0.41%; normalised viability (CAL-51 [14]): 78.2%; normalised viability (MDA-MB-453 [15]): 77.4%; normalised viability (HDQ-P1 [16]): 58.5%; normalised viability (CAL-85-1 [17]): 65.3%; normalised viability (CAL-148 [18]): 77.3% |
| O=C(CCBr)N1CCN(C(=O)CCBr)CC1 [Pipobroman] (300 nM) | 110% | 106% | 113% | 87.1% | 101% | 107% | – |
